Patent publication US8592420B2, “Method of treating an anxiety disorder” (Kyowa Hakko Kirin Co., Ltd., priority 2003, dated 2013)

Tests used:
Assay type in all cases: in vivo
Male Wistar rats = experiment: Vogel Conflict Test in the rat (Test Example 10); conditions: Table 7; 1 mg/kg po 60 min before test; 5 minutes punished session; vehicle 4.8 ± 1.3 (for C), 5.7 ± 0.8 (for D)
Protocol: The method followed that described in Psychopharmacol., 21, 1-7 (1971) with a slight modification. Male Wistar rats (160-200 g) were deprived of water for 48 hours prior to test session consisting of a 5 minutes period. Each rat was then placed in a test box (25×30×25 cm). The rat was allowed to explore the drinking spout to drink water. When the rat drinks a drip of water, the electric shock (0.16 mA, duration of 0.2 seconds) was delivered from the floor grid. […] The test compound or a vehicle was administered orally 60 minutes before the test, respectively. Data were analyzed by comparing the result of a tested group with that of a vehicle control group using an unpaired Student's t-test.

Mice [1] = experiment: Hole-Board Test in the mouse (Test Example 1)
Protocol: The method followed that described in Arch. Int. Pharmacodyn. Ther., 147, 372-387 (1964) with a slight modification.
Mice were individually placed on a square board (35×35 cm) raised 60 cm above the floor, containing 16 equally spaced holes (25 mm diameter). The number of head-dips occurring during a 5 minute test was counted.
(§1) The test compound or vehicle was administered orally 60 minutes before the test.
Data were analyzed by comparing the result of a tested group with that of a vehicle control group using an unpaired Student's t-test.

Mice [2] = experiment: Marble Burying Test in the mouse (Test Example 2)
Protocol: (§2) The method followed that described in Eur. J. Pharmacol., 126, 223-229 (1986) with a slight modification.
(§3) Mice exposed to a novel object (marbles) tend to bury them in the sawdust floor covering.
(§4) Mice were individually placed in transparent plastic cages with 25 colored marbles (diameter 1.5 cm) on 5 cm of the sawdust floor. The cage was covered with a similar cage upturned.
(§5) The number of marbles covered by sawdust (50% or more) was counted at the end of a 30 minute test.
as §1
Data were analyzed by comparing the result of treated groups with that of a vehicle control group using an unpaired Student's t-test.

rat [3] = experiment: Elevated Plus-Maze Test in the rat (Test Example 4)
Protocol: (§6) The method followed that described in Naunyn. Schmied. Arch. Pharmacol., 327, 1-5 (1984) with a slight modification.
(§7) The maze consisted of 4 arms of equal length and width (50×10 cm) arranged in the form of a plus sign (+). Two opposite arms were enclosed by 40 cm high walls (closed arms). The 2 other arms had no walls (open arms). The maze was raised 50 cm above the floor. A rat was placed in the center of the plus-maze and left to explore for 5 minutes. The number of entries into the open and closed arms and the time spent in the open arms was recorded.
The test compound or vehicle was administered orally 60 minutes before the test, respectively.
(§8) Data were analyzed by comparing the result of a treated group with that of a vehicle control group using an unpaired Student's t-test.

male rats = experiment: Social Interaction Test in the rat (Test Example 5)
Protocol: The method followed that described in Br. J. Pharmacol., 62, 19-24 (1978) with a slight modification.
A pair of male rats were placed in opposite corners of an open-topped arena (50×50×50 cm) and allowed to interact with each other. The time spent in active social interaction (i.e. sniffing, following, grooming, mounting, crawling under or over the partner) was recorded for a 10 minute session.
The test compound or vehicle was administered orally 60 minutes before the test, with each rat of the same pair receiving the same treatment.
Data were analyzed by comparing the result of a treated group with that of a vehicle control group using an unpaired Student's t-tests.

Mice [4] = experiment: Marble Burying Test in the mouse, adjunctive treatment with buspirone or fluoxetine (Test Example 7); conditions: for NUMBER OF MARBLES COVERED BY SAWDUST % change from control / NUMBER OF MARBLES COVERED BY SAWDUST mean ± s.e.m.: Table 5; for NUMBER OF MARBLES COVERED BY SAWDUST mean ± s.e.m.: 60 min before test, vehicle 17.1 ± 1.6; for effect of single administration on number of marbles covered by sawdust: single administration: Compound A 1 mg/kg, buspirone 15 mg/kg, fluoxetine 20 mg/kg, po
Protocol: as §2, §3, §4, §5
The test compound or vehicle was administered orally 60 minutes before the test either alone or in combination with buspirone or fluoxetine.
as §8

rat [5] = experiment: Learned Helplessness in the rat (Test Example 3); conditions: FIG. 1, single treatment p.o. 60 min before test
Protocol: The method followed that described in J. Exp. Psychol., 74, 1-9 (1967) with a slight modification.
Preconditioning with inescapable electric foot shock was given individually to each rat in the shuttle box on day 1. A constant current (1.3 mA) shock generator delivered scrambled, inescapable shocks to the grid floor during 50 minute preconditioning period. Control rats were also individually placed in the identical chamber for 50 minutes, but shock was not given. Conditioned avoidance training session (FR1: buzzer 10 seconds, 0.6 mA foot shock; 5 seconds, interval time; 10 seconds/trial, 15 escape trials) and test session (FR2: 0.6 mA foot shock; 10 seconds, interval time; 0.5 seconds, 0.6 mA foot shock; 10 seconds, interval time; 15 seconds/trial, 15 trials) were performed on day 2 consecutively. FR1 session consisted of 15 trials during which a single shuttle response terminated shock and rats learned how to escape shocks. Subsequent FR2 session consisted of 15 trials during which each rat had to cross from one side of the shuttle box to the other and then crossed back to terminate shock. […]
The ratio of escape response was calculated from the following formula. […]
The ratio of intertrial response is calculated from the following formula. […]
Data were analyzed by comparing the result of a tested group with that of a vehicle control group using a Steel test.

rat [6] = experiment: Elevated Plus-Maze Test in the rat, adjunctive treatment with alprazolam (Test Example 8); conditions: for OPEN ARMS NUMBER OF ENTRIES % change from control / OPEN ARMS TIME SPENT % change from control / OPEN ARMS NUMBER OF ENTRIES mean ± s.e.m. / OPEN ARMS TIME SPENT (sec) mean ± s.e.m.: Table 6; for OPEN ARMS NUMBER OF ENTRIES % change from control / OPEN ARMS TIME SPENT % change from control: single compound 1 mg/kg po; for OPEN ARMS NUMBER OF ENTRIES mean ± s.e.m. / OPEN ARMS TIME SPENT (sec) mean ± s.e.m.: single compound 1 mg/kg po 60 min before test; for OPEN ARMS NUMBER OF ENTRIES mean ± s.e.m.: vehicle 2.3 ± 0.6; for OPEN ARMS TIME SPENT (sec) mean ± s.e.m.: vehicle 37.4 ± 9.5; for effect alone on open arm entries and time spent in open arms: alone at 1 mg/kg po
Protocol: as §6, §7
The test compound or vehicle was administered orally 60 minutes before the test either alone or in combination with alprazolam.
as §8

## COCCOc1ccc(N2CCN(CCn3ncc4c3nc(N)n3nc(-c5ccco5)nc43)CC2)cc1 [Compound D, 5-amino-2-(2-furyl)-7-(2-{4-[4-(2-methoxyethoxy)phenyl]piperazinyl}ethyl)pyrazolo[4,3-e]-1,2,4-triazolo[1,5-c]pyrimidine]
Male Wistar rats
  NUMBER OF SHOCKS mean ± s.e.m: 10.8 ± 1.6

## COc1cc(/C=C/c2nc3c(c(=O)n(C)c(=O)n3C)n2C)cc(OC)c1OC [Compound B, (E)-1,3,7-trimethyl-8-(3,4,5-trimethoxystyryl)xanthine]
Mice [1]; Table 1-B, 3 mg/kg p.o. 60 min before test, vehicle 30.2 ± 3.9
  NUMBER OF HEAD-DIPS mean ± s.e.m.: 43.9 ± 4.2
Mice [2]; Table 2-B, 3 mg/kg p.o. 60 min before test
  NUMBER OF MARBLES COVERED BY SAWDUST % change from control: −55%
Mice [2]; Table 2-B, 3 mg/kg p.o. 60 min before test, vehicle 20.6 ± 1.1
  NUMBER OF MARBLES COVERED BY SAWDUST mean ± s.e.m.: 9.3 ± 1.9
Rat [3]; Table 3-B, 1 mg/kg po 60 min before test, vehicle 1.8 ± 0.8
  OPEN ARMS NUMBER OF ENTRIES mean ± s.e.m.: 5.8 ± 0.8
Rat [3]; Table 3-B, 1 mg/kg po 60 min before test, vehicle 15.6 ± 8.1
  OPEN ARMS TIME SPENT (sec) mean ± s.e.m.: 94.4 ± 15.2 s
Male rats; Table 4-B, 3 mg/kg po 60 min before test, vehicle 89.0 ± 5.7
  TIME SPENT IN ACTIVE SOCIAL INTERACTION (sec) mean ± s.e.m.: 141 ± 6.8 s

## CC(C)(O)CCN1CCN(c2cc3nc(-c4ccco4)nn3c(N)n2)CC1 [Compound C, 5-amino-2-(2-furyl)-7-[4-(3-hydroxy-3-methylbutyl)piperazinyl][1,2,4]triazolo[1,5-c]pyrimidine]
Mice [1]; Table 1-C, 10 mg/kg p.o. 60 min before test, vehicle 30.2 ± 3.9
  NUMBER OF HEAD-DIPS mean ± s.e.m.: 46.9 ± 3.4
Mice [2]; Table 2-C, 10 mg/kg p.o. 60 min before test, p 0.08
  NUMBER OF MARBLES COVERED BY SAWDUST % change from control: −17%
Mice [2]; Table 2-C, 10 mg/kg p.o. 60 min before test, vehicle 20.9 ± 1.1, p 0.08
  NUMBER OF MARBLES COVERED BY SAWDUST mean ± s.e.m.: 17.0 ± 1.6
Rat [3]; Table 3-C, 30 mg/kg po 60 min before test, vehicle 2.3 ± 0.5, p 0.0503
  OPEN ARMS NUMBER OF ENTRIES mean ± s.e.m.: 4.2 ± 0.8
Rat [3]; Table 3-C, 30 mg/kg po 60 min before test, vehicle 26.4 ± 6.6
  OPEN ARMS TIME SPENT (sec) mean ± s.e.m.: 55.2 ± 10.7 s
Male rats; Table 4-C, 30 mg/kg po 60 min before test, vehicle 96.2 ± 8.2
  TIME SPENT IN ACTIVE SOCIAL INTERACTION (sec) mean ± s.e.m.: 130 ± 9.7 s
Male Wistar rats
  NUMBER OF SHOCKS mean ± s.e.m: 10.5 ± 2.1

## CNCCC(Oc1ccc(C(F)(F)F)cc1)c1ccccc1 (stereo not drawn) [fluoxetine]
Mice [4]; fluoxetine 20 mg/kg po alone
  NUMBER OF MARBLES COVERED BY SAWDUST % change from control: −20%
  NUMBER OF MARBLES COVERED BY SAWDUST mean ± s.e.m.: 13.6 ± 2.5
Mice [4]
  effect of single administration on number of marbles covered by sawdust: no significant effects

## O=C1CC2(CCCC2)CC(=O)N1CCCCN1CCN(c2ncccn2)CC1 [buspirone]
Mice [4]; buspirone 15 mg/kg po alone
  NUMBER OF MARBLES COVERED BY SAWDUST % change from control: −26%
  NUMBER OF MARBLES COVERED BY SAWDUST mean ± s.e.m.: 12.7 ± 1.8
Mice [4]
  effect of single administration on number of marbles covered by sawdust: no significant effects

## CCn1c(=O)c2c(nc(/C=C/c3ccc(OC)c(OC)c3)n2C)n(CC)c1=O [Compound A, (E)-8-(3,4-dimethoxystyryl)-1,3-diethyl-7-methylxanthine]
Mice [1]; Table 1-A, 3 mg/kg p.o. 60 min before test, 5 minute test, vehicle 28.6 ± 2.4
  NUMBER OF HEAD-DIPS mean ± s.e.m.: 46.7 ± 3.2
Mice [1]; Table 1-A, 3 mg/kg p.o. 60 min before test, vehicle 12.7 ± 0.8
  NUMBER OF ENTRIES INTO THE 4 QUADRANTS mean ± s.e.m.: 24.4 ± 1.7
Mice [2]; Table 2-A, 3 mg/kg p.o. 60 min before test
  NUMBER OF MARBLES COVERED BY SAWDUST % change from control: −50%
Mice [2]; Table 2-A, 3 mg/kg p.o. 60 min before test, 30 minute test, 25 marbles, vehicle 20.9 ± 1.4
  NUMBER OF MARBLES COVERED BY SAWDUST mean ± s.e.m.: 10.5 ± 2.9
Rat [5]; 1.25 mg/kg and more
  escape failure (ratio of escape response, FR2 trial): dose-dependently reversed the escape failure
Rat [5]
  intertrial crossings (ratio of intertrial response, FR2 trial): did not increase intertrial crossings
Rat [3]; Table 3-A, 3 mg/kg po 60 min before test, 5 minutes, vehicle 1.9 ± 0.3
  OPEN ARMS NUMBER OF ENTRIES mean ± s.e.m.: 5.4 ± 0.7
Rat [3]; Table 3-A, 3 mg/kg po 60 min before test, vehicle 38.9 ± 7.7
  OPEN ARMS TIME SPENT (sec) mean ± s.e.m.: 143 ± 20.9 s
Male rats; Table 4-A, 3 mg/kg po 60 min before test, 10 minute session, vehicle 97.5 ± 8.7
  TIME SPENT IN ACTIVE SOCIAL INTERACTION (sec) mean ± s.e.m.: 153 ± 11.2 s
Mice [4]; Compound A 1 mg/kg po alone
  NUMBER OF MARBLES COVERED BY SAWDUST % change from control: −18%
  NUMBER OF MARBLES COVERED BY SAWDUST mean ± s.e.m.: 14.1 ± 1.6
Mice [4]
  effect of single administration on number of marbles covered by sawdust: no significant effects
Rat [6]
  OPEN ARMS NUMBER OF ENTRIES % change from control: +65%
  OPEN ARMS TIME SPENT % change from control: +48%
  OPEN ARMS NUMBER OF ENTRIES mean ± s.e.m.: 3.8 ± 0.8
  OPEN ARMS TIME SPENT (sec) mean ± s.e.m.: 55.2 ± 12.1 s
  effect alone on open arm entries and time spent in open arms: moderate effect

## Cc1nnc2n1-c1ccc(Cl)cc1C(c1ccccc1)=NC2 [alprazolam, reference compound]
Rat [6]
  OPEN ARMS NUMBER OF ENTRIES % change from control: +91%
  OPEN ARMS TIME SPENT % change from control: +53%
  OPEN ARMS NUMBER OF ENTRIES mean ± s.e.m.: 4.4 ± 0.9
  OPEN ARMS TIME SPENT (sec) mean ± s.e.m.: 57.3 ± 12.8 s
  effect alone on open arm entries and time spent in open arms: moderate effect
